The results in this text go back to patent US11174243B2, “Succinate forms and compositions of Bruton's tyrosine kinase inhibitors” (Sunesis Pharmaceuticals, Inc., priority 2016, dated 2021).

Like-named read-outs stand apart in the source and are kept apart here.

Data set [1] can be described thus: Phase 1a study Stage 2: food effect on pharmacokinetics. Type of data set: in vivo, human. The following applies: 200 mg oral. Here is the method: In Stage 2, the effects of food on the pharmacokinetics of Compound 2 were assessed. In this stage, 12 newly enrolled subjects (6 males, 6 females; Cohort 6) were administered Compound 2 on two separate occasions, either in a fasting or fed state, with a period of ≥72 hours between the two doses. The Compound 2 dose level was 200 mg. The 12 subjects were randomized such that 6 subjects (3 males, 3 females) received Compound 2 after an overnight fast, and 6 subjects (3 males, 3 females) received Compound 2 after ingestion of a standardized, high-fat meal. Approximately 4 days later, the subjects were crossed over so that those who received Compound 2 without food in the first period then received the drug with food, while those who received Compound 2 with food in the first period then received the drug without food.
The effects of food on the pharmacokinetics of Compound 2 were assessed after oral administration of 200 mg Compound 2 to 12 subjects in the fed and fasted states. The absorption rate of Compound 2 in fed state was decreased, with Tmax delayed by 2 hours and Cmax decreased by about 30%; however, there was no impact on the extent of absorption (AUC) and elimination (T½) of Compound 2.

A further data set deals with T1, TEC (Homo sapiens, UniProt P42680).
T1 sequence (P42680 1-631): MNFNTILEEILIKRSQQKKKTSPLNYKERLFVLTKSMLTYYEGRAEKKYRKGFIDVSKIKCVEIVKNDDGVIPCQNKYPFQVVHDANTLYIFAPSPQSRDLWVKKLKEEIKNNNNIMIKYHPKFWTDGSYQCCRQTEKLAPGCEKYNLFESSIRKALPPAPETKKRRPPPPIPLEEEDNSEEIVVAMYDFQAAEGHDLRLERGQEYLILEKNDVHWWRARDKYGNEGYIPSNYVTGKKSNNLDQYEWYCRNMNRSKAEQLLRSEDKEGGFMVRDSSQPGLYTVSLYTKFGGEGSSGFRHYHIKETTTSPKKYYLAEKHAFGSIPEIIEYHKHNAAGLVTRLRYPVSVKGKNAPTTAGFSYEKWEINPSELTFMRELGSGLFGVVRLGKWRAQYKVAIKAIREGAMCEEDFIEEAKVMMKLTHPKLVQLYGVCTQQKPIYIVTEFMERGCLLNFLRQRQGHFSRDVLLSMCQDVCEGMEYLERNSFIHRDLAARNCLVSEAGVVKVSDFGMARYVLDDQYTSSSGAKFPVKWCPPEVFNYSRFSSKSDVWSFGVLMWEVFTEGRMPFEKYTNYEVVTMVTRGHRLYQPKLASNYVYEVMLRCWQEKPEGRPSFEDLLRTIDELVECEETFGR
In words: In vitro kinase assay, TEC.

Data set [2] is described as follows: Phase 1a single-dose study in humans, Stage 1: pharmacokinetics. Type of data set: in vivo, human. The note with it: for Cmax / Vd/F / AUC(0-t) / Tmax / half-life: both sexes, human, plasma; for AUC(0-t): read-out: AUC0-24. The method, then: A first-in-human Phase 1a randomized, double-blind, placebo-controlled, single-dose study, was conducted in 3 stages: In Stage 1, four sequential cohorts of 8 subjects each were randomly assigned to receive progressively higher single oral administrations of Compound 2 at doses of 50, 100, 200, and 300 mg (n=6 per cohort; 3 males and 3 females) or placebo (n=2 per cohort; 1 male and 1 female).
The primary endpoint of safety was assessed by monitoring adverse events (AEs), laboratory abnormalities, and cardiac findings (ECG). Secondary endpoints included evaluation of the PK parameters of area under the plasma concentration-time curve (AUC), maximum plasma concentration (Cmax), time of maximum concentration (Tmax), apparent volume of distribution (Vd/F), terminal elimination half-life (t1/2), terminal elimination rate constant (λz), and apparent clearance (Cl/F) as well as the PD parameter of BTK inhibition in whole blood.
Compound 2 is a succinate salt. Plasma concentrations of the free base (Compound 1) were measured and used for estimation of PK parameters and elaboration of concentration/PD relationships.

In the next data set the target is T2, ITK (Homo sapiens, UniProt Q08881).
T2 sequence (Q08881 1-620): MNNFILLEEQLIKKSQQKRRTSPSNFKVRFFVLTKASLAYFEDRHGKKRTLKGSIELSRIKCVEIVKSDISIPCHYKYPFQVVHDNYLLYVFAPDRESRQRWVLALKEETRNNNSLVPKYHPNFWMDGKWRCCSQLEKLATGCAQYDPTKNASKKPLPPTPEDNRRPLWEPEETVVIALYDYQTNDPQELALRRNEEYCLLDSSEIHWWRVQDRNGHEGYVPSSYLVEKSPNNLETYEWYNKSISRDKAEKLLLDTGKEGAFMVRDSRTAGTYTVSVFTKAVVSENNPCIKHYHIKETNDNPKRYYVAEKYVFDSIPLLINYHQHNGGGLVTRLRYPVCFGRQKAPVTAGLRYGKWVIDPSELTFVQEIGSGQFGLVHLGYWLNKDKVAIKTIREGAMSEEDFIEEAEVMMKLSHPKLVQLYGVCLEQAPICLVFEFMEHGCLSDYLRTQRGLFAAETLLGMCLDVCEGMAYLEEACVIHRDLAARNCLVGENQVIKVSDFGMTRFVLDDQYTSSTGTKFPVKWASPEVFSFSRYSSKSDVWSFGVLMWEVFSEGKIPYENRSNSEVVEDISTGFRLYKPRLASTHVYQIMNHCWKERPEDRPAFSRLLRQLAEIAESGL
The data set can be described thus: In vitro kinase assay, ITK.

Where [3] appears, read: oral, Cohort 1 (50 mg), mean (SD).
[4] abbreviates: oral, Cohort 2 (100 mg), mean (SD).
The mark [5] stands for this setting: oral, Cohort 3 (200 mg), mean (SD).
[6] abbreviates: oral, Cohort 4 (300 mg), mean (SD).

Consider `NC(=O)[C@H]1CCN(c2ncnc(N)c2F)C[C@@H]1N1CCC[C@@H](Nc2cc(Cl)cc(C(F)(F)F)c2)C1=O` [Compound 2], for which the “apparent total body clearance and volume of distribution, fed vs fasted” value in data set [1] is “comparable in both food conditions”. In addition, in data set [1] (fed vs fasted), the “impact of food on extent of absorption (AUC) and elimination (T½)” value was “no impact”. Besides, the “decrease of Cmax in fed state” value in data set [1] (fed vs fasted, 12 subjects) was “about 30%”. Besides, the Tmax in data set [1] (both sexes, human, plasma, fed vs fasted, 12 subjects, read-out: delay of Tmax in fed state) was determined as 2 h.

Take `NC(=O)[C@H]1CCN(c2ncnc(N)c2F)C[C@@H]1N1CCC[C@@H](Nc2cc(Cl)cc(C(F)(F)F)c2)C1=O` [Compound 1, (3R,3′R,4′S)-1′-(6-amino-5-fluoropyrimidin-4-yl)-3-((3-chloro-5-(trifluoromethyl)phenyl)amino)-2-oxo-[1,3′-bipiperidine]-4′-carboxamide]: the IC50 against TEC is 19 nM; on ITK, 24 nM. For the same compound, the t1/2 in data set [2] (50 mg (single dose), after dosing with Compound 2, mean) amounted to 8.14 h. Moreover, the “dose proportionality of total exposure (AUC and Cmax)” value in data set [2] (50-300 mg single oral dose) is listed as “increased approximately proportionally with dose”. Besides, the CL/F is given as 6139 (1250) mL/hr in data set [2] (Cohort 1 (50 mg), mean (SD)); 7162 (2900) mL/hr in data set [2] (Cohort 2 (100 mg), mean (SD)); 7886 (3724) mL/hr in data set [2] (Cohort 3 (200 mg), mean (SD)); 7615 (1595) mL/hr in data set [2] (Cohort 4 (300 mg), mean (SD)). Besides, the Cmax in data set [2] (oral, 50 mg (single dose), after dosing with Compound 2, mean) worked out at 1910 ng/mL; in data set [2] (oral, Cohort 2 (100 mg), mean (SD), N 6), 3400 ng/mL; in data set [2] (oral, Cohort 3 (200 mg), mean (SD), N 6), 5960 ng/mL; in data set [2] (oral, Cohort 4 (300 mg), mean (SD), N 6), 6800 ng/mL; in data set [2] (Cohort 1 (50 mg Compound 2, single oral), mean (SD), N 6), 1910 ng/mL. Further, the Vd/F amounted to 69.6 L in data set [2] (setting [3]), 72.9 L in data set [2] (setting [4]), 118 L in data set [2] (setting [5]) and 177 L in data set [2] (setting [6]). In addition, the AUC(0-t) in data set [2] (setting [3]) came out at 7830 ng·h/mL; in data set [2] (setting [4]), 14500 ng·h/mL; in data set [2] (setting [5]) it was 29900 ng·h/mL; in data set [2] (setting [6]) it was 35400 ng·h/mL. The Tmax worked out at 1.17 h in data set [2] (oral, Cohort 1 (50 mg), mean (SD), read-out: Tmax); 1.25 h in data set [2] (oral, Cohort 2 (100 mg), mean (SD), read-out: Tmax); 1 h in data set [2] (oral, Cohort 3 (200 mg), mean (SD), read-out: Tmax); 1.5 h in data set [2] (oral, Cohort 4 (300 mg), mean (SD), read-out: Tmax); 1 h in data set [2] (all dose cohorts, oral, range: 0.5-3.0, read-out: median Tmax). For the same compound, the half-life in data set [2] (oral, Cohort 1 (50 mg), mean (SD), read-out: t1/2 (converted)) was 8.14 h; in data set [2] (oral, Cohort 2 (100 mg), mean (SD), read-out: t1/2 (converted)), 7.43 h; in data set [2] (oral, Cohort 3 (200 mg), mean (SD), read-out: t1/2 (converted)), 10.5 h; in data set [2] (oral, Cohort 4 (300 mg), mean (SD), read-out: t1/2 (converted)), 17 h; in data set [2] (50-300 mg single oral dose, read-out: Mean t1/2 values across all dose cohorts) it was 7.43 to 17 h.

The IC50 is the midpoint of a concentration-inhibition curve. High values mean weaker potency, low ones greater potency. By Cmax is commonly meant the peak of the concentration-time curve. The Vd/F is the volume of distribution divided by bioavailability.
